Measurements taken from patent US20220402950A1, “SUBSTITUTED BENZIMIDAZOLES AS PAD4 INHIBITORS” (BRISTOL-MYERS SQUIBB COMPANY, priority 2018, published 2022).
Like-named read-outs stand apart in the source and are kept apart here.

Target: human PAD4 (hPAD4) (Homo sapiens, UniProt Q9UM07)
Assay: RFMS Human PAD4 Functional Assay
Format: biochemical
Conditions: 5 nM hPAD4, 250 μM BAEE
Outline: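 RapidFire ESI-MS quantification, normalised to a modified-citrulline internal standard, after phenyl glyoxal (final 4 mM) derivatisation of the TCA-quenched reaction. The enzyme (10 nM) sat 30 min with compound (up to 50 μM final) before 500 μM BAEE (as added) started a 90 min, 37 °C reaction. Buffer: HEPES pH 7.5, 50 μM calcium, 5 μM TPEN.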

[1] = hPAD4 RFMS IC50, human PAD4, rapid-fire mass spectrum (RFMS) assay
[2] = human PAD4, rapid-fire mass spectrum (RFMS) assay, read-out: hPAD4 RFMS IC50

Sequence of human PAD4 (hPAD4) (Q9UM07 whole entry): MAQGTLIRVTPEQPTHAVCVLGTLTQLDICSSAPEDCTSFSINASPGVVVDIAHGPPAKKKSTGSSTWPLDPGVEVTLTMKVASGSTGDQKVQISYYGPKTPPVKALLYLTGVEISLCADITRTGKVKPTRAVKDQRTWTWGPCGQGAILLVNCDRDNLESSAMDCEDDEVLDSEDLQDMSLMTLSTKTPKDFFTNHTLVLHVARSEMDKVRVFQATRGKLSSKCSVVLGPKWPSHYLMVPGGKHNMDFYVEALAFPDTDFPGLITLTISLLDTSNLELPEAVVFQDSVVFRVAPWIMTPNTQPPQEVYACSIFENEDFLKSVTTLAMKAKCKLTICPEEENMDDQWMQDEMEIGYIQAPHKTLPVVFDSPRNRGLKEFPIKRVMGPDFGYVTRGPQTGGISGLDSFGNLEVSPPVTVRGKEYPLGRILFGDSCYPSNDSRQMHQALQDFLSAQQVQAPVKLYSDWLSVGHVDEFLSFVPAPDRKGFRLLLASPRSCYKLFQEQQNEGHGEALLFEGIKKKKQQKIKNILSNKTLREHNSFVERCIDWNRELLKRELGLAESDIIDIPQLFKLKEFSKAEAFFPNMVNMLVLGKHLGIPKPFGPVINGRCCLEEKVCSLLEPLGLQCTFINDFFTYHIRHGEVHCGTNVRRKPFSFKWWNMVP

Row | SMILES | IC50 [1] [nM] | IC50 [2] [nM]
1 | COc1cc(C(=O)N2C[C@H](N)C[C@@H](F)C2)cc2nc(-c3cc4cccc(C5CN(C(C)=O)C5)c4n3CC3CC3)n(C)c12 [Example 41, 1-[3-(2-{5-[(3R,5R)-3-amino-5-fluoropiperidine-1-carbonyl]-7-methoxy-1-methyl-1H-1,3-benzodiazol-2-yl}-1-(cyclopropylmethyl)-1H-indol-7-yl)azetidin-1-yl]ethan-1-one] | – | 53
2 | COc1cc(C(=O)N2C[C@H](N)CC[C@@H]2C)cc2nc(-c3cc4cccc(C5CN(C(C)=O)C5)c4n3CC3CC3)n(C)c12 [Example 42, 1-(3-(2-(5-((2S,5R)-5-amino-2-methylpiperidine-1-carbonyl)-7-methoxy-1-methyl-1H-benzo[d]imidazol-2-yl)-1-(cyclopropylmethyl)-1H-indol-7-yl)azetidin-1-yl)ethan-1-one] | – | 141
3 | COc1cc(C(=O)N2C[C@H]3CC[C@@H]2[C@@H]3N)cc2nc(-c3cc4cccc(C5CC(NC(C)=O)C5)c4n3CC3CC3)n(C)c12 (stereo partly drawn) [Example 57, N-[3-(2-{5-[(1R,4R,7R)-7-amino-2-azabicyclo[2.2.1]heptane-2-carbonyl]-7-methoxy-1-methyl-1H-1,3-benzodiazol-2-yl}-1-(cyclopropylmethyl)-1H-indol-7-yl)cyclobutyl]acetamide] | – | 10
4 | COc1cc(C(=O)N2C[C@H]3CC[C@@H]2[C@@H]3N)cc2nc(-c3cc4cccc(C5CC6(C5)CN(C(C)=O)C6)c4n3CC3CC3)n(C)c12 [Example 62, 1-[6-(2-{5-[(1R,4R,7R)-7-amino-2-azabicyclo[2.2.1]heptane-2-carbonyl]-7-methoxy-1-methyl-1H-1,3-benzodiazol-2-yl}-1-(cyclopropylmethyl)-1H-indol-7-yl)-2-azaspiro[3.3]heptan-2-yl]ethan-1-one] | – | 110
5 | COc1cc(C(=O)N2C[C@H]3CC[C@@H]2[C@@H]3N)cc2nc(-c3cc4cccc(C5CN(S(C)(=O)=O)C5)c4n3CC3CC3)n(C)c12 [Example 64, (1R,4R,7R)-2-{2-[1-(cyclopropylmethyl)-7-(1-methanesulfonylazetidin-3-yl)-1H-indol-2-yl]-7-methoxy-1-methyl-1H-1,3-benzodiazole-5-carbonyl}-2-azabicyclo[2.2.1]heptan-7-amine] | – | 31
6 | COc1cc(C(=O)N2C[C@H]3CC[C@@H]2[C@@H]3N)cc2nc(-c3cc4cccc(C5CN(C(=O)C(C)(C)C)C5)c4n3CC3CC3)n(C)c12 [Example 67, 1-[3-(2-{5-[(1R,4R,7R)-7-amino-2-azabicyclo[2.2.1]heptane-2-carbonyl]-7-methoxy-1-methyl-1H-1,3-benzodiazol-2-yl}-1-(cyclopropylmethyl)-1H-indol-7-yl)azetidin-1-yl]-2,2-dimethylpropan-1-one] | 189 | –
7 | COc1cc(C(=O)N2C[C@H]3CC[C@@H]2[C@@H]3N)cc2nc(-c3cc4cccc(C5CN(C(=O)CCC(=O)O)C5)c4n3CC3CC3)n(C)c12 [Example 68, 4-[3-(2-{5-[(1R,4R,7R)-7-amino-2-azabicyclo[2.2.1]heptane-2-carbonyl]-7-methoxy-1-methyl-1H-1,3-benzodiazol-2-yl}-1-(cyclopropylmethyl)-1H-indol-7-yl)azetidin-1-yl]-4-oxobutanoic acid] | 170 | –
8 | COc1cc(C(=O)N2C[C@H]3CC[C@@H]2[C@@H]3N)cc2nc(-c3cc4cccc(C5CN(C(=O)C(C)(C)O)C5)c4n3CC3CC3)n(C)c12 [Example 69, 1-[3-(2-{5-[(1R,4R,7R)-7-amino-2-azabicyclo[2.2.1]heptane-2-carbonyl]-7-methoxy-1-methyl-1H-1,3-benzodiazol-2-yl}-1-(cyclopropylmethyl)-1H-indol-7-yl)azetidin-1-yl]-2-hydroxy-2-methylpropan-1-one] | 50 | –
9 | COc1cc(C(=O)N2C[C@H]3CC[C@@H]2[C@@H]3N)cc2nc(-c3cc4cccc(C5CN(C(=O)Nc6ccccc6)C5)c4n3CC3CC3)n(C)c12 [Example 70, 3-(2-{5-[(1R,4R,7R)-7-amino-2-azabicyclo[2.2.1]heptane-2-carbonyl]-7-methoxy-1-methyl-1H-1,3-benzodiazol-2-yl}-1-(cyclopropylmethyl)-1H-indol-7-yl)-N-phenylazetidine-1-carboxamide] | 15 | –
10 | COCC(=O)N1CC(c2cccc3cc(-c4nc5cc(C(=O)N6C[C@H]7CC[C@@H]6[C@@H]7N)cc(OC)c5n4C)n(CC4CC4)c23)C1 [Example 71, 1-[3-(2-{5-[(1R,4R,7R)-7-amino-2-azabicyclo[2.2.1]heptane-2-carbonyl]-7-methoxy-1-methyl-1H-1,3-benzodiazol-2-yl}-1-(cyclopropylmethyl)-1H-indol-7-yl)azetidin-1-yl]-2-methoxyethan-1-one] | 16 | –

Other lines, results leading:

Row | IC50 [1] [nM] | IC50 [2] [nM] | SMILES
11 | 102 | – | COc1cc(C(=O)N2C[C@H]3CC[C@@H]2[C@@H]3N)cc2nc(-c3cc4cccc(CCO)c4n3CC3CC3)n(C)c12 [Example 35, 2-(2-{5-[(1R,4R,7R)-7-amino-2-azabicyclo[2.2.1]heptane-2-carbonyl]-7-methoxy-1-methyl-1H-1,3-benzodiazol-2-yl}-1-(cyclopropylmethyl)-1H-indol-7-yl)ethan-1-ol]
12 | 199 | – | COc1cc(C(=O)N2C[C@H]3CC[C@@H]2[C@@H]3N)cc2nc(-c3cc4cccc(CC5CCCCO5)c4n3CC3CC3)n(C)c12 (stereo partly drawn) [Example 36, (1R,4R,7R)-2-{2-[1-(cyclopropylmethyl)-7-[(oxan-2-yl)methyl]-1H-indol-2-yl]-7-methoxy-1-methyl-1H-1,3-benzodiazole-5-carbonyl}-2-azabicyclo[2.2.1]heptan-7-amine]
13 | – | 26 | COc1cc(C(=O)N2C[C@H]3CC[C@@H]2[C@@H]3N)cc2nc(-c3cc4cccc(C5CN(C(C)=O)C5)c4n3CC3CC3)n(C)c12 [Example 37, 1-(3-(2-(5-((1R,4R,7R)-7-amino-2-azabicyclo[2.2.1]heptane-2-carbonyl)-7-methoxy-1-methyl-1H-benzo[d]imidazol-2-yl)-1-(cyclopropylmethyl)-1H-indol-7-yl)azetidin-1-yl)ethan-1-one]
14 | 73 | – | COc1cc(C(=O)N2C[C@H]3CC[C@@H]2[C@@H]3N)cc2nc(-c3cc4cccc(C5CCCN(C(C)=O)C5)c4n3CC3CC3)n(C)c12 (stereo partly drawn) [Example 38, 1-[3-(2-{5-[(1R,4R,7R)-7-amino-2-azabicyclo[2.2.1]heptane-2-carbonyl]-7-methoxy-1-methyl-1H-1,3-benzodiazol-2-yl}-1-(cyclopropylmethyl)-1H-indol-7-yl)piperidin-1-yl]ethan-1-one]
15 | 51 | – | COc1cc(C(=O)N2C[C@H]3CC[C@@H]2[C@@H]3N)cc2nc(-c3cc4cccc(C5CCCN(C(N)=O)C5)c4n3CC3CC3)n(C)c12 (stereo partly drawn) [Example 39, 3-(2-{5-[(1R,4R,7R)-7-amino-2-azabicyclo[2.2.1]heptane-2-carbonyl]-7-methoxy-1-methyl-1H-1,3-benzodiazol-2-yl}-1-(cyclopropylmethyl)-1H-indol-7-yl)piperidine-1-carboxamide]
16 | – | 21 | COC(=O)N1CC(c2cccc3cc(-c4nc5cc(C(=O)N6C[C@H]7CC[C@@H]6[C@@H]7N)cc(OC)c5n4C)n(CC4CC4)c23)C1 [Example 40, Methyl 3-(2-(5-((1R,4R,7R)-7-amino-2-azabicyclo[2.2.1]heptane-2-carbonyl)-7-methoxy-1-methyl-1H-benzo[d]imidazol-2-yl)-1-(cyclopropylmethyl)-1H-indol-7-yl)azetidine-1-carboxylate]
17 | – | 108 | COc1cc(C(=O)N2C[C@H]3CC[C@@H]2[C@@H]3N)cc2nc(-c3cc4cccc(CCCC(=O)O)c4n3CC3CC3)n(C)c12 [Example 60, 4-(2-{5-[(1R,4R,7R)-7-amino-2-azabicyclo[2.2.1]heptane-2-carbonyl]-7-methoxy-1-methyl-1H-1,3-benzodiazol-2-yl}-1-(cyclopropylmethyl)-1H-indol-7-yl)butanoic Acid]
18 | – | 34 | COc1cc(C(=O)N2C[C@H]3CC[C@@H]2[C@@H]3N)cc2nc(-c3cc4cccc(C5CC6(CNC6)C5)c4n3CC3CC3)n(C)c12 [Example 61, (1R,4R,7R)-2-[2-(7-{2-azaspiro[3.3]heptan-6-yl}-1-(cyclopropylmethyl)-1H-indol-2-yl)-7-methoxy-1-methyl-1H-1,3-benzodiazole-5-carbonyl]-2-azabicyclo[2.2.1]heptan-7-amine]
19 | – | 62 | COc1cc(C(=O)N2C[C@H]3CC[C@@H]2[C@@H]3N)cc2nc(-c3cc4cccc(CC5CN(C(C)=O)C5)c4n3CC3CC3)n(C)c12 [Example 63, 1-{3-[(2-{5-[(1R,4R,7R)-7-amino-2-azabicyclo[2.2.1]heptane-2-carbonyl]-7-methoxy-1-methyl-1H-1,3-benzodiazol-2-yl}-1-(cyclopropylmethyl)-H-indol-7-yl)methyl]azetidin-1-yl}ethan-1-one]
20 | – | 24 | COc1cc(C(=O)N2C[C@H]3CC[C@@H]2[C@@H]3N)cc2nc(-c3cc4cccc(C5CN(C(=O)CN)C5)c4n3CC3CC3)n(C)c12 [Example 65, 2-amino-1-[3-(2-{5-[(1R,4R,7R)-7-amino-2-azabicyclo[2.2.1]heptane-2-carbonyl]-7-methoxy-1-methyl-1H-1,3-benzodiazol-2-yl}-1-(cyclopropylmethyl)-1H-indol-7-yl)azetidin-1-yl]ethan-1-one]
21 | 30 | – | COc1cc(C(=O)N2C[C@H]3CC[C@@H]2[C@@H]3N)cc2nc(-c3cc4cccc(C5CN(C(N)=O)C5)c4n3CC3CC3)n(C)c12 [Example 66, 3-(2-{5-[(1R,4R,7R)-7-amino-2-azabicyclo[2.2.1]heptane-2-carbonyl]-7-methoxy-1-methyl-1H-1,3-benzodiazol-2-yl}-1-(cyclopropylmethyl)-1H-indol-7-yl)azetidine-1-carboxamide]
